# From paper PMC6645336 (ACS Omega, 2018)
# “And” between values parts separate entries of the source, which are not always exact repeats. Equal values may be shown once. Read-outs that look alike come from different tables or passages of the source.
# Columns and labels:
# [1] = cited from earlier work
# [2] = Literature reports of residue distribution in milk products; set-up: species or system cow; details: 15% of whole milk in their study, 10% in ours; from ref 18 data
# [3] = cited from earlier work; remark: listed apart in the source
# [4] = cited from earlier work; for log P / log D (pH 7.4): discussion compounds, Table S4
# [5] = Phase 1: chemical distribution from whole milk into milk fat and skim milk; format: physicochemical, cow; details: for distribution into milk fat, percent of total amount added: mean of all doses; for ratio of concentration in milk fat to initial concentration in whole milk / ratio of concentration in skim milk to initial concentration in whole milk: mean of dose means
# [6] = Phase 2: chemical distribution from skim milk into curd and whey; format: physicochemical, cow; details: for concentration ratio of 0% moisture curd to whey: dry matter basis; for Curd Fraction % Dose: phase 2, based on skim milk; for curd/whey concentration ratio: curd as obtained (70% moisture)
# [7] = cited from earlier work; remark: listed apart in the source
compound,measurement,setting,value
"CC(=O)Nc1ccc(O)cc1 [TYL, acetaminophen]",curd/whey concentration ratio,[1],1.5
"CC[C@H]1OC(=O)[C@H](C)[C@@H](O[C@H]2C[C@@](C)(OC)[C@@H](O)[C@H](C)O2)[C@H](C)[C@@H](O[C@@H]2O[C@H](C)C[C@H](N(C)C)[C@H]2O)[C@](C)(O)C[C@@H](C)C(=O)[C@H](C)[C@@H](O)[C@]1(C)O [ERY, erythromycin]",curd/whey concentration ratio,[1],2.4
CNP(=O)(OC)Oc1ccc(C(C)(C)C)cc1Cl (stereo not shown) [cruformate],concentration into cream adjusted to reflect lipid mass yield,[2],~7.6 fold
same,concentration into cream relative to whole milk,[3]; fed to cows,fivefold
same,curd/whey concentration ratio,[3]; starting milk concentration 0.07 ppm,22
same,curd/whey concentration ratio,[3]; starting milk concentration 0.16 ppm,31
same,log P,[4],3.33
"Brc1ccc(Oc2cc(Br)c(Br)cc2Br)c(Br)c1 [BDE-99, 2,2′,4,4′,5-pentabromodiphenyl ether]","distribution into milk fat, percent of total amount added",[5],> 80%
same,ratio of concentration in milk fat to initial concentration in whole milk,[5],18–20
same,concentration ratio of 0% moisture curd to whey,[6]; mean of doses,327
same,"chemical retained in the curd fraction, percent of chemical in skim milk",[6]; mean of doses,~80%
same,Curd Fraction % Dose,[6]; nominal 20 nM in whole milk,73%
same,Curd Fraction % Dose,[6]; nominal 200 nM in whole milk,80%
same,Curd Fraction % Dose,[6]; nominal 2000 nM in whole milk,92%
"C[C@]12CC[C@@H]3c4ccc(O)cc4CC[C@H]3[C@@H]1CCC2=O [E1, estrone]","distribution into milk fat, percent of total amount added",[5],74%
same,ratio of concentration in milk fat to initial concentration in whole milk,[5],15.8 and ~16
same,curd/whey concentration ratio,[6]; mean of doses,24
same,concentration ratio of 0% moisture curd to whey,[6]; mean of doses,104
ClC1=C(Cl)C2(Cl)C3C4CC(C5OC45)C3C1(Cl)C2(Cl)Cl (stereo not shown) [endrin],curd/whey concentration ratio,[3],91
same,log P,[4],4.9
same,log D (pH 7.4),[4],4.9
"Clc1ccc(C(c2ccc(Cl)cc2)C(Cl)(Cl)Cl)cc1 [DDT, dichlorodiphenyltrichloroethane]",starting DDT degraded to DDE and DDD,[3]; during the manufacturing of cheese,27–53%
same,concentration in Swiss-type cheese relative to original whole milk,[3]; milk of dairy cows fed DDT,~8 times
same,cream/whole milk ratio,[3]; pasteurized milk,12
same,cream/whole milk ratio,[3]; raw milk,9.0
same,log P,[4],5.92
same,log D (pH 7.4),[4],6.22
"CN(C)[C@@H]1C(O)=C(C(N)=O)C(=O)[C@@]2(O)C(O)=C3C(=O)c4c(O)cccc4[C@@](C)(O)[C@H]3[C@H](O)[C@@H]12 [OTET, oxytetracycline]",curd/whey concentration ratio,[1],1.4
COP(=S)(OC)Oc1ccc(SC)c(C)c1 [fenthion],concentration ratio of fat/whole milk,[3],~5
same,percent found in the fat fractions,[3],80–90%
same,log P,[4],3.21
"CS(=O)(=O)c1ccc([C@@H](O)[C@@H](CO)NC(=O)C(Cl)Cl)cc1 [TAP, thiamphenicol]",curd/whey concentration ratio,[1],1.3
"CC(C)(c1ccc(O)cc1)c1ccc(O)cc1 [BPA, bisphenol A]","distribution into milk fat, percent of total amount added",[5],39%
same,curd/whey concentration ratio,[6]; mean of doses,29
same,concentration ratio of 0% moisture curd to whey,[6]; mean of doses,111
"Clc1ccc(-c2cc(Cl)c(Cl)cc2Cl)cc1Cl [PCB-118, 2,3′,4,4′,5-pentachlorobiphenyl]","distribution into milk fat, percent of total amount added",[5],> 80%
same,ratio of concentration in milk fat to initial concentration in whole milk,[5],18–20 and 19.5
same,concentration ratio of 0% moisture curd to whey,[6]; mean of doses,136
same,"chemical retained in the curd fraction, percent of chemical in skim milk",[6]; mean of doses,~80%
"Clc1cc2c(cc1Cl)Oc1c(ccc(Cl)c1Cl)O2 [1278-TCDD, 1,2,7,8-tetrachlorodibenzo-p-dioxin]","distribution into milk fat, percent of total amount added",[5],> 80%
same,ratio of concentration in milk fat to initial concentration in whole milk,[5],18–20 and 18.7
same,concentration ratio of 0% moisture curd to whey,[6]; mean of doses,115
same,"chemical retained in the curd fraction, percent of chemical in skim milk",[6]; mean of doses,~80%
"Cl[C@H]1[C@H](Cl)[C@@H](Cl)[C@@H](Cl)[C@H](Cl)[C@H]1Cl [lindane, 1,2,3,4,5,6-hexachlorcyclohexane]",concentration in curd relative to whey,[3],approximately 12 times
same,reduction by pasteurization,[3],65–73%
same,losses in Ras cheese,[3]; during 6 months in storage,36.7%
same,losses during refrigeration of yogurt,[3]; over 3 days,1.4–8%
same,log P,[4],3.99
"Oc1c(Cl)cc2c(c1Cl)Oc1cc(Cl)c(Cl)cc1O2 [2-OH-1378-TCDD, 2-hydroxy-1,3,7,8-tetrachlorodibenzo-p-dioxin]",reduction in milk fat distribution by hydroxylation,[5]; 2-OH-1378-TCDD compared with 1278-TCDD,~30%
same,"distribution into milk fat, percent of total amount added",[5],54%
same,ratio of concentration in milk fat to initial concentration in whole milk,[5],11.2
same,greater distribution into whey compared to the unsubstituted analogue,"[6]; 2-OH-1378-TCDD vs 1278-TCDD, 3′-MeSO2-PCB-101 vs PCB-118",~30%
same,percent of whole milk chemical distributed to whey,[6]; based on whole milk,About 25%
same,concentration ratio of 0% moisture curd to whey,[6]; mean of doses,18
same,"chemical distributed into whey, percent of chemical in skim milk",[6]; mean of doses,35–60%
same,"chemical retained in the curd fraction, percent of chemical in skim milk",[6]; mean of doses,40–60%
"O=C(Nc1ccc(Cl)cc1)Nc1ccc(Cl)c(Cl)c1 [TCC, triclocarban]","distribution into milk fat, percent of total amount added",[5],> 80% and 85%
same,ratio of concentration in milk fat to initial concentration in whole milk,[5],18–20 and 17.6
same,concentration ratio of 0% moisture curd to whey,[6]; mean of doses,46
same,"chemical distributed into whey, percent of chemical in skim milk",[6]; mean of doses,35–60%
same,"chemical retained in the curd fraction, percent of chemical in skim milk",[6]; mean of doses,40–60%
same,percent of skim milk chemical in 0% moisture curd,[6]; mean of doses,57%
"CC1(C)S[C@@H]2[C@H](NC(=O)Cc3ccccc3)C(=O)N2[C@H]1C(=O)O [PENG, penicillin G]",curd/whey concentration ratio,[1],1.2
"O=C(O)CNCP(=O)(O)O [GLY, glyphosate]","distribution into milk fat, percent of total amount added",[5],0.95%
same,ratio of concentration in milk fat to initial concentration in whole milk,[5],0.2
same,ratio of concentration in skim milk to initial concentration in whole milk,[5],~1
same,curd/whey concentration ratio,[6]; mean of doses,1.4
same,concentration ratio of 0% moisture curd to whey,[6]; mean of doses,2.5
same,"chemical retained in the curd fraction, percent of chemical in skim milk",[6]; mean of doses,approximately 16.5%
"Clc1cc2c(cc1Cl)Oc1cc(Cl)c(Cl)cc1O2 [2,3,7,8-TCDD]","residues in cream exceeding those in milk, factor","[3]; lactating dairy cows, medium heavy cream",about 10
ClC1=C(Cl)C2(Cl)C3C(Cl)C=CC3C1(Cl)C2(Cl)Cl (stereo not shown) [heptachlor],curd/whey concentration ratio,[3],22
same,log P,[4],5.46
"O=[N+]([O-])NC1=NCCN1Cc1ccc(Cl)nc1 [IMI, imidacloprid]","distribution into milk fat, percent of total amount added",[5],2.5%
same,ratio of concentration in skim milk to initial concentration in whole milk,[5],~1
same,curd/whey concentration ratio,[6]; mean of doses,2.4
same,concentration ratio of 0% moisture curd to whey,[6]; mean of doses,9.2
same,"chemical retained in the curd fraction, percent of chemical in skim milk",[6]; mean of doses,23.7%
ivermectin [IVR],milk fat/whole milk concentration ratio,[7],18.4
same,"log P, parenthesis value","[4]; Table S1, value cited in the earlier paper",6.61
